In ChEMBL document CHEMBL4613208, “Isatin derivatives and their anti-bacterial activities” (Eur J Med Chem, 2019):
Converted amounts (≈) assume the structure as drawn.

What was measured:
[1] = test system: Pseudomonas aeruginosa; assay: Antibacterial activity against Pseudomonas aeruginosa; assay type: functional, organism-based
[2] = test system: Salmonella typhi; assay: Antibacterial activity against Salmonella typhi; assay type: functional, Salmonella enterica subsp. enterica serovar Typhi; conditions: Salmonella enterica
[3] = test system: Escherichia coli; assay: Antibacterial activity against Escherichia coli assessed as zone of inhibition at 100 ug/ml; assay type: functional; conditions: read-out: IZ
[4] = test system: Pseudomonas aeruginosa; assay: Antibacterial activity against Pseudomonas aeruginosa assessed as zone of inhibition at 100 ug/ml; assay type: functional; conditions: read-out: IZ
[5] = test system: Staphylococcus aureus; assay: Antibacterial activity against Staphylococcus aureus assessed as zone of inhibition at 100 ug/ml; assay type: functional; conditions: read-out: IZ
[6] = test system: Bacillus cereus; assay: Antibacterial activity against Bacillus cereus assessed as zone of inhibition at 100 ug/ml; assay type: functional; conditions: read-out: IZ
[7] = test system: Staphylococcus aureus; assay: Antibacterial activity against Staphylococcus aureus; assay type: functional, organism-based
[8] = test system: Escherichia coli; assay: Antibacterial activity against Escherichia coli; assay type: functional, organism-based

Structure (SMILES)	MIC [1]	zone of inhibition at 100 µg/mL [3] [mm]	zone of inhibition at 100 µg/mL [4] [mm]	zone of inhibition at 100 µg/mL [5] [mm]	zone of inhibition at 100 µg/mL [6] [mm]	further results
COc1cccc(NC(=O)CN2C(=O)/C(=N\c3ccccc3)c3ccccc32)c1	3 to 324 nM	–	–	–	–	MIC [2]: 3 to 324 nM (≈ 1.16 to 125 ng/mL)
Cc1nc2ccccc2cc1C(=O)N/N=C1\C(=O)Nc2c(Cl)cccc21	–	6 to 19	6 to 19	6 to 19	6 to 19	–
O=C1Nc2ccccc2/C1=N/NC(=O)c1cccc(Br)c1	–	–	–	–	–	IC50 [7]: 30 to 50 µM; IC50 [8]: 30 to 50 µM; IC50 [1]: 30 to 50 µM
Cc1ccc(C)c(NC(=O)CN2C(=O)/C(=N\c3ccccc3)c3ccccc32)c1	3 to 324 nM	–	–	–	–	MIC [2]: 3 to 324 nM (≈ 1.15 to 124 ng/mL)
COc1ccc(NC(=O)CN2C(=O)/C(=N\c3ccccc3)c3ccccc32)cc1	3 to 324 nM	–	–	–	–	MIC [2]: 3 to 324 nM (≈ 1.16 to 125 ng/mL)
Cc1c(C)c2c(c(C)c1O)CCC(C)(C(=O)N/N=C1\C(=O)N(C)c3ccc(Cl)cc31)O2 (stereo unspecified)	12.5 to 100 µg/mL	–	–	–	–	MIC [7]: 12.5 to 100 µg/mL (≈ 28.3 to 226 µM); MIC [8]: 12.5 to 100 µg/mL (≈ 28.3 to 226 µM)
CC[C@H]1OC(=O)[C@H](C)[C@@H](O[C@H]2C[C@@](C)(OC)[C@@H](O)[C@H](C)O2)[C@H](C)[C@@H](O[C@@H]2O[C@H](C)C[C@H](N(C)C)[C@H]2O)[C@](C)(O)C[C@@H](C)CN(C)[C@H](C)[C@@H](O)[C@]1(C)O [AZITHROMYCIN]	6.25 to 12.5 µg/mL	–	–	–	–	MIC [7]: 6.25 to 12.5 µg/mL (≈ 8.34 to 16.7 µM); MIC [8]: 6.25 to 12.5 µg/mL (≈ 8.34 to 16.7 µM)
Cc1nc2ccccc2cc1C(=O)N/N=C1\C(=O)Nc2c1ccc(Cl)c2Cl	–	6 to 19	6 to 19	6 to 19	6 to 19	–
Cc1ccc(C)c(/N=C2\C(=O)N(CC(=O)Nc3ccccc3)c3ccccc32)c1	3 to 324 nM	–	–	–	–	MIC [2]: 3 to 324 nM (≈ 1.15 to 124 ng/mL)
Cc1c(C)c2c(c(C)c1O)CCC(C)(C(=O)N/N=C1\C(=O)Nc3ccc(Br)cc31)O2 (stereo unspecified)	12.5 to 100 µg/mL	–	–	–	–	MIC [7]: 12.5 to 100 µg/mL (≈ 26.5 to 212 µM); MIC [8]: 12.5 to 100 µg/mL (≈ 26.5 to 212 µM)
Cc1c(C)c2c(c(C)c1O)CCC(C)(C(=O)N/N=C1\C(=O)Nc3ccc(F)cc31)O2 (stereo unspecified)	12.5 to 100 µg/mL	–	–	–	–	MIC [7]: 12.5 to 100 µg/mL (≈ 30.4 to 243 µM); MIC [8]: 12.5 to 100 µg/mL (≈ 30.4 to 243 µM)
O=C(COc1ccc(N2C(=O)C(Cl)C2c2ccccc2)c2cccnc12)N/N=C1\C(=O)N(CN2CCOCC2)c2ccccc21 (stereo unspecified)	–	6 to 19	6 to 19	6 to 19	6 to 19	–
COc1ccc(C2C(Cl)C(=O)N2c2ccc(OCC(=O)N/N=C3\C(=O)N(CN4CCCCC4)c4ccccc43)c3ncccc23)cc1 (stereo unspecified)	–	6 to 19	6 to 19	6 to 19	6 to 19	–
O=C(COc1ccc(N2C(=O)CSC2c2ccc(Cl)cc2)c2cccnc12)N/N=C1\C(=O)N(CN2CCCCC2)c2ccccc21 (stereo unspecified)	–	6 to 19	6 to 19	6 to 19	6 to 19	–
Cc1nc2ccccc2cc1C(=O)N/N=C1\C(=O)Nc2c(Br)ccc(Br)c21	–	6 to 19	6 to 19	6 to 19	6 to 19	–
O=C(COc1ccc(N2C(=O)C(Cl)C2c2ccc(Cl)cc2)c2cccnc12)N/N=C1\C(=O)N(CN2CCCCC2)c2ccccc21 (stereo unspecified)	–	6 to 19	6 to 19	6 to 19	6 to 19	–
COc1cccc(NC(=O)CN2C(=O)/C(=N\c3cc(C)ccc3C)c3ccccc32)c1	3 to 15 nM	–	–	–	–	MIC [2]: 3 to 15 nM (≈ 1.24 to 6.2 ng/mL)
Cc1nc2ccccc2cc1C(=O)N/N=C1\C(=O)Nc2cc(Cl)cc(Cl)c21	–	6 to 19	6 to 19	6 to 19	6 to 19	–
CN1CCN(CN2C(=O)/C(=N\NC(=O)COc3ccc(N4C(=O)CSC4c4ccccc4)c4cccnc34)c3ccccc32)CC1 (stereo unspecified)	–	6 to 19	6 to 19	6 to 19	6 to 19	–
O=C(COc1ccc(N2C(=O)CSC2c2ccc([N+](=O)[O-])cc2)c2cccnc12)N/N=C1\C(=O)N(CN2CCCCC2)c2ccccc21 (stereo unspecified)	–	6 to 19	6 to 19	6 to 19	6 to 19	–
Cc1ccc(NC(=O)CN2C(=O)/C(=N\c3ccccc3)c3ccccc32)c(C)c1	3 to 324 nM	–	–	–	–	MIC [2]: 3 to 324 nM (≈ 1.15 to 124 ng/mL)
Cc1nc2ccccc2cc1C(=O)N/N=C1\C(=O)Nc2ccc(F)c(Cl)c21	–	6 to 19	6 to 19	6 to 19	6 to 19	–
Cc1ccc(C)c(/N=C2\C(=O)N(CC(=O)Nc3cc(C)ccc3C)c3ccccc32)c1	3 to 324 nM	–	–	–	–	MIC [2]: 3 to 324 nM (≈ 1.23 to 133 ng/mL)
O=C(COc1ccc(N2C(=O)CSC2c2ccc(Br)cc2)c2cccnc12)N/N=C1\C(=O)N(CN2CCCCC2)c2ccccc21 (stereo unspecified)	–	6 to 19	6 to 19	6 to 19	6 to 19	–
CN1CCN(CN2C(=O)/C(=N\NC(=O)COc3ccc(N4C(=O)C(Cl)C4c4ccccc4)c4cccnc34)c3ccccc32)CC1 (stereo unspecified)	–	6 to 19	6 to 19	6 to 19	6 to 19	–
